Assay results published in article PMC4770715, “LIM kinase inhibitors disrupt mitotic microtubule organization and impair tumor cell proliferation” (Oncotarget, 2015).

Columns and labels:
Assay in all cases: biochemical
Design in all cases: KINOMEscan active-site competition binding, percent of control (100 = no competition)
Details in all cases: competition binding, percent control
BRAF(V600E) = BRAF(V600E) (Homo sapiens, UniProt P15056, V600E)
EPHB2 = EPHB2 (Homo sapiens, UniProt P29323)
DCAMKL2 = biological target: T1, DCAMKL2 (Homo sapiens, UniProt Q8N568)
T1 construct: gene DCLK2

TGFBR2 = TGFBR2 (Homo sapiens, UniProt P37173)
BRK = biological target: T2, BRK (Homo sapiens, UniProt Q13882)
T2 construct: gene PTK6

ULK3 = ULK3 (Homo sapiens, UniProt Q6PHR2)
FAK = biological target: T3, FAK (Homo sapiens, UniProt Q05397)
T3 construct: gene PTK2

EPHB4 = EPHB4 (Homo sapiens, UniProt P54760)
IGF1R = IGF1R (Homo sapiens, UniProt P08069)
CHEK2 = CHEK2 (Homo sapiens, UniProt O96017)
CDK9 = CDK9 (Homo sapiens, UniProt P50750)
NDR1 = biological target: T4, NDR1 (Homo sapiens, UniProt Q15208)
T4 construct: gene STK38

AXL = AXL (Homo sapiens, UniProt P30530)
GRK1 = GRK1 (Homo sapiens, UniProt Q15835)
AURKB = AURKB (Homo sapiens, UniProt Q96GD4)
PKNB(M.tuberculosis) = PKNB(M.tuberculosis) (Mycobacterium tuberculosis, UniProt P9WI81)
OSR1 = biological target: T5, OSR1 (Homo sapiens, UniProt O95747)
T5 construct: gene OXSR1

CLK3 = CLK3 (Homo sapiens, UniProt P49761)
PCTK1 = biological target: T6, PCTK1 (Homo sapiens, UniProt Q00536)
T6 construct: gene CDK16

[1] = biological target: T7, ABL1(M351T)-phosphorylated (Homo sapiens, UniProt P00519, M351T)
T7 construct: phosphorylated

PIM1 = PIM1 (Homo sapiens, UniProt P11309)
[2] = biological target: T8, TYK2(JH1domain-catalytic) (Homo sapiens, UniProt P29597)
T8 construct: JH1domain-catalytic

ERBB2 = ERBB2 (Homo sapiens, UniProt P04626)

T2 sequence (Q13882 whole entry): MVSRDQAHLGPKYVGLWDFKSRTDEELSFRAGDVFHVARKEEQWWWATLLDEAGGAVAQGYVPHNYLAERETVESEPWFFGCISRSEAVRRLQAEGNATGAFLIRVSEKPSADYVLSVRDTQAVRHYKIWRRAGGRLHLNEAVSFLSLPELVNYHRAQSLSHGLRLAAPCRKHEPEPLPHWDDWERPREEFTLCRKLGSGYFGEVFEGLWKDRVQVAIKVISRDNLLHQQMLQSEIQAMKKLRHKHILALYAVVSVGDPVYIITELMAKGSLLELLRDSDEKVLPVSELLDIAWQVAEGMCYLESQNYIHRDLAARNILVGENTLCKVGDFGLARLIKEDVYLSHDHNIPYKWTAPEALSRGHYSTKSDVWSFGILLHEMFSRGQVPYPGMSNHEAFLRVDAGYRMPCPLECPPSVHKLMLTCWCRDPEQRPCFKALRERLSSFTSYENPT
AURKB, sequence (Q96GD4 whole entry): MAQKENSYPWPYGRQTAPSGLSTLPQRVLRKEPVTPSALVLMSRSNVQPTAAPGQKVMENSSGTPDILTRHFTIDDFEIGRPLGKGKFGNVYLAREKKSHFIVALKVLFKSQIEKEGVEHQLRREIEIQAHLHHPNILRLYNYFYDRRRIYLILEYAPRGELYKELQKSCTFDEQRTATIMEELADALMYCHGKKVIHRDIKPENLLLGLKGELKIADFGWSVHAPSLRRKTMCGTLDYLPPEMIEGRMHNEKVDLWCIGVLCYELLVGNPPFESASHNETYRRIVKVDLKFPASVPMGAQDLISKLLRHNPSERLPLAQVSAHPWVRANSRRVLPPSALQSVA
GRK1, sequence (Q15835 whole entry): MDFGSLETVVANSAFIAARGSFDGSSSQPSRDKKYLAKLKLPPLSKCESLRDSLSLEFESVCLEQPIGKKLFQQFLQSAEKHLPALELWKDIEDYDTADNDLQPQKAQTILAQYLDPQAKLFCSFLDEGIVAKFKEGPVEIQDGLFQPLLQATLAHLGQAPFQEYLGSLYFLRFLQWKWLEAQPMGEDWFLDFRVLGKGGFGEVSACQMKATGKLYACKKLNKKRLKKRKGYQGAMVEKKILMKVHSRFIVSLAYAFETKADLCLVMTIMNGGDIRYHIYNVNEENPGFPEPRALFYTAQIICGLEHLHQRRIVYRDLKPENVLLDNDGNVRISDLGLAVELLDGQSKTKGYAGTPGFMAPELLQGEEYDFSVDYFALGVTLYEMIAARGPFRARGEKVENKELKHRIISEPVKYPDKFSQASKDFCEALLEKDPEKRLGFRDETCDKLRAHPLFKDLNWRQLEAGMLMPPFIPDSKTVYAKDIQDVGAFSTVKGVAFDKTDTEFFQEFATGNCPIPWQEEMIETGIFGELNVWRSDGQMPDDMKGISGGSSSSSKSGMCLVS
IGF1R, sequence (P08069 whole entry): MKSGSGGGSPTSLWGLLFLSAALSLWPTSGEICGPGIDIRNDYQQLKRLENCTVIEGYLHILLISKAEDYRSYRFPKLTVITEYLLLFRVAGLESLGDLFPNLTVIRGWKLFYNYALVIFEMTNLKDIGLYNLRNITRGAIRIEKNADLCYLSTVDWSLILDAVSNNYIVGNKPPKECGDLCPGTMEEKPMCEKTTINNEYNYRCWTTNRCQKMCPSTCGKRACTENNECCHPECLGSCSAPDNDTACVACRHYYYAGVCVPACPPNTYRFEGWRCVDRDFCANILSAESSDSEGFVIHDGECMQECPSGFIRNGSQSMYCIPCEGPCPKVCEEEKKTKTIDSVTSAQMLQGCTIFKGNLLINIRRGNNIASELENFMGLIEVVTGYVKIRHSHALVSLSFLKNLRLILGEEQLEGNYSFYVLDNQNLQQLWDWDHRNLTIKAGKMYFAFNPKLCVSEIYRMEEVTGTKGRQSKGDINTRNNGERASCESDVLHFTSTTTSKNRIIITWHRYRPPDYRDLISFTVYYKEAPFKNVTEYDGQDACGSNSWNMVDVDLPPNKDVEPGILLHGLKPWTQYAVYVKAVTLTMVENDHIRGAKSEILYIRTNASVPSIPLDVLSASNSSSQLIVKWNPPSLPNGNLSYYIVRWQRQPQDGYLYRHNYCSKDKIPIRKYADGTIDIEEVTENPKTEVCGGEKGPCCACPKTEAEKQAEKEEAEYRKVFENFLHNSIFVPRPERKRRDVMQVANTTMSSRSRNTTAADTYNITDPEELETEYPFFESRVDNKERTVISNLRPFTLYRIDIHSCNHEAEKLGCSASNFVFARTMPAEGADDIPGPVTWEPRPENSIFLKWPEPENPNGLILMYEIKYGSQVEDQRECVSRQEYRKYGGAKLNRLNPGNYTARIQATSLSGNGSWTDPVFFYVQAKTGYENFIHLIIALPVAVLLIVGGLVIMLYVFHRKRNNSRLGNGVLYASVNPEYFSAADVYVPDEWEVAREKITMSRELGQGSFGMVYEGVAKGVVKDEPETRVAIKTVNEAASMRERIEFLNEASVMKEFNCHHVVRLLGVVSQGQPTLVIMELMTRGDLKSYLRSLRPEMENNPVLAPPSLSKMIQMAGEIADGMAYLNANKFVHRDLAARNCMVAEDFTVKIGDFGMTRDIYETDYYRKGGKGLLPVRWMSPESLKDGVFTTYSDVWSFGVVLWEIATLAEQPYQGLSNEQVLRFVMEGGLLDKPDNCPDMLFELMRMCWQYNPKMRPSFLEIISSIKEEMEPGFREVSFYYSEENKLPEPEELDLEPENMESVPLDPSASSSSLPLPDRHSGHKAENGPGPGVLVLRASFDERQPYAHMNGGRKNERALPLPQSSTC
EPHB4, sequence (P54760 whole entry): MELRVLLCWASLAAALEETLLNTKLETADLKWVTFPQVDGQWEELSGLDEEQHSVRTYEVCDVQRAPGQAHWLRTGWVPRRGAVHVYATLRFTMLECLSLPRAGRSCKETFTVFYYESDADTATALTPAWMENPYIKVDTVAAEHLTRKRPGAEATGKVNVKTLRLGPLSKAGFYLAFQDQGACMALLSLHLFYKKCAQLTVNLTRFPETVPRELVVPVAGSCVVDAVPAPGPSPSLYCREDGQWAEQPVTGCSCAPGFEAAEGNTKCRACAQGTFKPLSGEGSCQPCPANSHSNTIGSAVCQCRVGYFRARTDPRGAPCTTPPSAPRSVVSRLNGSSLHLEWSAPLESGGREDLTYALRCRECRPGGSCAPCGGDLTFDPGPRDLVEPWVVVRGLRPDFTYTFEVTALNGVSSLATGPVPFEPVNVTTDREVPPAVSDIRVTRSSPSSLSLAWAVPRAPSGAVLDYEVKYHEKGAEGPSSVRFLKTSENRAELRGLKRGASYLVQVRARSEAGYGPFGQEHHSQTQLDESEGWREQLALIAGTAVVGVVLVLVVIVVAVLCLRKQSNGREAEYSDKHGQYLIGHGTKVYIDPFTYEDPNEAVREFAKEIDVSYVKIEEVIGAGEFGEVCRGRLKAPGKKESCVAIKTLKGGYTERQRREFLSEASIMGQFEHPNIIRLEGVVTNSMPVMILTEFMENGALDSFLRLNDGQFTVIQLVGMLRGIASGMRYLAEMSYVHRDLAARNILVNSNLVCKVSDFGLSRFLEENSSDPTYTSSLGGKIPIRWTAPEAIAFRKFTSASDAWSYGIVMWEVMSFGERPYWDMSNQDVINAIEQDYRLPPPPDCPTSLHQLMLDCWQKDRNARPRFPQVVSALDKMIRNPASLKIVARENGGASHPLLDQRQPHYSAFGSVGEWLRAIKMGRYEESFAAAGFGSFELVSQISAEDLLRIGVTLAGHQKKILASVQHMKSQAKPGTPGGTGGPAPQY
ULK3, sequence (Q6PHR2 whole entry): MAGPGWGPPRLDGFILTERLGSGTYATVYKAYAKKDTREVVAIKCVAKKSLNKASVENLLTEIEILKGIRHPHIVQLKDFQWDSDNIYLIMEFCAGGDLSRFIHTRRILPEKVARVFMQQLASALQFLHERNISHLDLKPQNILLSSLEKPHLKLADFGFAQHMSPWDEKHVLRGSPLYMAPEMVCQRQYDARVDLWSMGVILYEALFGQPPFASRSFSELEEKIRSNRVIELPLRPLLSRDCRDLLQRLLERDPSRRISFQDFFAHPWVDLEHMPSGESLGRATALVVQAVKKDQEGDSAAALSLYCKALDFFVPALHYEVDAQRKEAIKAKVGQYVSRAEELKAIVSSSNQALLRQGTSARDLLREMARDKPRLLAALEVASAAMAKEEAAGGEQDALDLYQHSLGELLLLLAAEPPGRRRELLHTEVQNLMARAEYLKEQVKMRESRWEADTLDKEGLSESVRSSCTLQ
PKNB(M.tuberculosis), sequence (P9WI81 whole entry): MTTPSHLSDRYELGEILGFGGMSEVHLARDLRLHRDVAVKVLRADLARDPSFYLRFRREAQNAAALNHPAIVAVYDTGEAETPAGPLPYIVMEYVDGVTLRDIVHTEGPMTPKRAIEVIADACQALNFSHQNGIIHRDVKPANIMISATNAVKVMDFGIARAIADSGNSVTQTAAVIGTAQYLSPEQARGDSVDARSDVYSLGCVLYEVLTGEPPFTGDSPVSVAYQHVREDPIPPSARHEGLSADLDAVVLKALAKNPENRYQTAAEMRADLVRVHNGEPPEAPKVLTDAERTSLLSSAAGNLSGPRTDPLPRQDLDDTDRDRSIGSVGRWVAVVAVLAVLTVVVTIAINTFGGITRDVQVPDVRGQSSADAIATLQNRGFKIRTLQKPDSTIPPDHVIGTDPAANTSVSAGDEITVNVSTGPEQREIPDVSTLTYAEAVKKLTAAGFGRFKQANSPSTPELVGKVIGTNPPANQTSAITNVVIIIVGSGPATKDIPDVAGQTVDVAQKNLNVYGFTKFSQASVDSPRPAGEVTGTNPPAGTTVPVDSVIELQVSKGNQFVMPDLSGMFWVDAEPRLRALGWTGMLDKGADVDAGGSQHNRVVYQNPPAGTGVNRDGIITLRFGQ

SMILES	remaining binding at 10 µM (BRAF(V600E)) [%]	remaining binding at 10 µM (EPHB2) [%]	remaining binding at 10 µM (DCAMKL2) [%]	remaining binding at 10 µM (TGFBR2) [%]	remaining binding at 10 µM (BRK) [%]	remaining binding at 10 µM (ULK3) [%]	remaining binding at 10 µM (FAK) [%]	remaining binding at 10 µM (EPHB4) [%]	remaining binding at 10 µM (IGF1R) [%]	remaining binding at 10 µM (CHEK2) [%]	remaining binding at 10 µM (CDK9) [%]	remaining binding at 10 µM (NDR1) [%]	remaining binding at 10 µM (AXL) [%]	remaining binding at 10 µM (GRK1) [%]	remaining binding at 10 µM (AURKB) [%]	remaining binding at 10 µM (PKNB(M.tuberculosis)) [%]	remaining binding at 10 µM (OSR1) [%]	remaining binding at 10 µM (CLK3) [%]	remaining binding at 10 µM (PCTK1) [%]	remaining binding at 10 µM [1] [%]	further results
COc1ccc(-c2cnccc2-c2cnc(NC(=O)C(C)C)s2)c(C(F)(F)F)c1 [CRT0105446, N-{5-[3-(4-Methoxy-2-trifluoromethyl-phenyl)-pyridin-4-yl]-hiazol-2-yl}-isobutyramide]	64	100	39	94	100	100	100	93	100	100	28	100	87	70	80	82	100	49	11	83	remaining binding at 10 µM (PIM1): 96%; remaining binding at 10 µM [2]: 72%; remaining binding at 10 µM (ERBB2): 94%
Cc1ccc(-c2cnccc2-c2cnc(Nc3ccc(O)cc3)s2)c(Cl)c1 [CRT0105950, 4-{5-[3-(2-Chloro-4-methyl-phenyl)-pyridin-4-yl]-thiazol-2-ylamino}-phenol]	83	81	77	18	100	68	33	82	3.6	55	65	86	43	59	0.15	19	84	22	63	66	remaining binding at 10 µM (PIM1): 76%; remaining binding at 10 µM [2]: 25%; remaining binding at 10 µM (ERBB2): 80%
